# Measurements: patent US8962677B2, “Methods of restoring cognitive ability using non-peptidic compounds” (Acumen Pharmaceuticals, Inc., priority 2007, dated 2015)
# Assays:
# [1] = cited from earlier work
# [2] = target: Aβ1-42 (Homo sapiens, UniProt P05067); test: FRET assay of Aβ1-42 oligomer (ADDL) assembly; format: biochemical; details: for IC50: FRET assay of Example 1, formation of neurotoxic ADDLs
# Source text: Fluorescence (or Förster) Resonance Energy Transfer (FRET) is a distance-dependent, non-radiative transfer of energy in which the de-excitation of one fluorophore (donor) is coupled to excitation of another fluorophore (acceptor). FRET occurs if (1) the quantum of energy emitted by a donor fluorophore corresponds to an acceptor fluorophore's excitation energy, (2) the orientations of donor and acceptor transition dipoles are nearly parallel and (3) the donor fluorescent emission spectrum overlaps the acceptor absorption spectrum.
# In this assay, Aβ1-42 oligomer formation is monitored by FRET using N-terminal conjugates of fluorescein-Aβ1-42 as both the donor and acceptor fluorophore (fluorescein-fluorescein Ro˜45 Å). […] Inhibition of Aβ1-42 assembly is observed as the absence or attenuation of fluorescein quenching.
# FRET and FP assays are performed in 384-well Corning Non-Binding Surface, black, opaque microtiter plates, and the assay buffer consists of 50 mM MOPS-Tris (pH 8.0) with 100 mM MgCl2. The assay volume, containing 0.2 μM FITC-Aβ(1-42) and 0.8 μM Aβ(1-42), is 50 μl and the temperature is 37° C. ADDL assembly is monitored on a Tecan GENios Pro plate reader, exciting at a wavelength of 485 nm and detecting emission at a wavelength of 515 nm. Kinetic traces are collected by recording fluorescence intensity and polarization readings every five minutes over about three to about a six-hour time course. […] Positive control reactions contain all buffer components in the absence of added small molecule or antibody reagents. To test for ADDL assembly inhibition, the non-peptidic compound was incubated with the peptide mixture at six concentrations from about 30 μM decreasing to about 0.05 μM.
# Test Compound A appears as compound 7 in Table 1.
# [3] = cited from earlier work; remark: listed apart in the source
# [4] = target: T1, Aβ1-42 ADDLs (Homo sapiens, UniProt P05067); test: Alternating Lever Cyclic Ratio (ALCR) rat model; format: in vivo; details: for Approach Errors Mean / Perseveration Errors Mean: base line error rate equalized to 1.00; for error rates versus baseline: given alone
# T1 construct: Synthetic Aβ1-42 powder was dissolved in 1,1,1,3,3,3 hexafluorisopropanol (HFIP); host or cells: chemically synthesised peptide
# Experimental: Preparations of Aβ1-42 ADDLs and a potential therapeutic compounds under the Alternating Lever Cyclic Ratio (ALCR) rat model of AD were tested. This highly sensitive model has been able to detect cognitive deficits due to direct injection of cell-derived Aβ oligomers into rat brain. In this study, a direct injection of ADDLs made from synthetic Aβ1-42 and a putative therapeutic compound under the ALCR procedure were tested.
# The ALCR test has proven to be much more sensitive than previously published methods for measuring drug effects on cognitive function. In this task, rats must learn a complex sequence of lever-pressing requirements in order to earn food reinforcement in a two-lever experimental chamber. Subjects must alternate between two levers by switching to the other lever after pressing the first lever enough to get food reward. The exact number of presses required for each food reward changes, first increasing from 2 responses per food pellet up to 56 presses per food pellet, then decreasing back to 2 responses per pellet. Intermediate values were based on the quadratic function, x^2−x. One cycle was an entire ascending and descending sequence of these lever press requirements (e.g., 2, 6, 12, 20, 30, 42, 56, 56, 42, 30, 20, 12, 6, and 2 presses per food reward). Six such full cycles were presented during each daily session.
# Synthetic Aβ1-42 powder was dissolved in 1,1,1,3,3,3 hexafluorisopropanol (HFIP) to afford a solution of Aβ1-42 in HFIP of about 1 mM and allowed to incubate at ambient temperature for about 1 h. The resulting solution was chilled on ice for about 5-10 min, then aliquoted into eppendorf tubes to provide about 50 μl of solution per tube. The tubes were then placed in a chemical fume hood and allowed to stand overnight to allow the HFIP to evaporate under a slow stream of nitrogen. To removed final traces of HFIP, the tubes were subjected to two SpeedVac cycles of 15 min at room temperature and about 15 to 25 in Hg of vacuum. The resulting films of monomerized Aβ1-42 peptide were stored over desiccant at −80° C. until used.
# A tube of monomerized Aβ1-42 peptide was warmed to room temperature and the Aβ1-42 peptide was dissolved in anhydrous DMSO to afford a peptide stock DMSO solution containing about 10 μM to about 100 μM Aβ1-42 peptide in DMSO.
# 2 μl of a 20 mM stock solution of test compound in anhydrous DMSO is added to 998 μl of neural basal media (phenol red free, Gibco 12348-017) to give a compound neural basal media solution containing 40 μM of test compound in neural basal media.
# For the Aβ1-42 peptide only treatment, peptide stock DMSO solution is added to 37° C. neural basal to obtain the requisite Aβ1-42 peptide monomer concentration, provided that the maximum concentration of DMSO is 1% or less, and the tube is vortexed for 30 to 60 seconds, spun down briefly in a microfuge and incubated at 37° C. for 15 min prior to the start of injections.
# For the Aβ1-42 peptide plus test compound treatment, peptide stock DMSO solution is added to 37° C. compound neural basal media solution to obtain the requisite Aβ1-42 peptide monomer concentration, provided that the maximum concentration of DMSO is 1% or less, and the tube is vortexed for 30 to 36 seconds, spun down briefly in a microfuge and incubated at 37° C. for 15 min prior to the start of injections.
# For control injections, compound neural basal media solution is incubated at 37° C. for 15 min prior to the start of injections.
# Rats: Rats were trained under ALCR until their error rates were stable. Once the rats were placed upon the final ALCR procedure, training sessions were conducted 7 days each week until the end of the study.
# Surgery: All rats received a single 28 ga cannula, which was permanently affixed to the skull, and aimed at the lateral ventricle. Half the rats received cannula in the right ventricle and half received cannula in the left ventricle. Rats were allowed 5 days to recover from surgery before training resumed. […]
# [5] = compound combined with Aβ1-42 ADDLs
# [6] = injectate alone, 20 μl via ventricular cannula, tested about 3 hours after injection
# Sequence of Aβ1-42 (P05067 672-713 limits assumed): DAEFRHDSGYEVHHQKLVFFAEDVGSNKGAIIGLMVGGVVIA
# T1 sequence (P05067 672-713 limits assumed): as above
compound,measurement,setting,value
"NCCCS(=O)(=O)O [Alzhemed, 3-amino-1-propanesulfonic acid]",cognitive decline,"[1]; 20 month open-label extension of Phase II trial, patients with mild AD",slowed cognitive decline in some patients
same,efficacy,[1]; blinded phase of the Phase II study,no efficacy was observed
same,blocking of Aβ1-42 monomer assembly into Aβ oligomers,"[2]; standard FRET assay conditions of Example 1, FIG. 2",inability of the compound Alzhemed to inhibit Aβ1-42 monomer assembly into Aβ oligomers
Oc1c(I)cc(Cl)c2cccnc12 [Clioquinol],patients' cognitive ability,[3]; compared to untreated patients,stabilize the patients' cognitive ability
same,Aβ1-42 levels in plasma,[3]; patients' plasma,lower Aβ1-42 levels
"Cn1nccc1C(=O)C/C(=N/NC(=O)c1ccccc1O)C(F)(F)F [Compound 1, 2-Hydroxy-benzoic acid [3-oxo-3-(1-methyl-1H-pyrazol-5-yl)-1-trifluoromethyl-prop-(Z)-ylidene]-hydrazide]",IC50,[2],17.7 µM
"CCOC(=O)c1c(NC(=O)C(=O)N/N=C/c2ccccc2O)sc2c1CCC(C)C2 (centres unmarked) [Compound 7, 2-{[1-(2-Hydroxyphenyl)-meth-(E)-ylidene-hydrazinooxalyl]-amino}-6-methyl-4,5,6,7-tetrahydro-benzo[b]thiophene-3-carboxylic acid ethyl ester]",inhibition of Aβ1-42 oligomer assembly,"[2]; 1 mM Aβ1-42 total monomer, 100 mM MgCl2, compound 0.05 to 3 mM (so in the source), FIG. 1",dose dependent inhibition of Aβ1-42 oligomer assembly
"COc1ccc(NC(=O)C(=O)N2N=C(CCC(C)C)CC2(O)C(F)(F)F)cc1 (centres unmarked) [Compound 21, 2-(5-hydroxy-3-isopentyl-5-(trifluoromethyl)-4,5-dihydro-1H-pyrazol-1-yl)-N-(4-methoxyphenyl)-2-oxoacetamide]",IC50,[2],6.4 µM
"O=C(N/N=C/c1c(O)ccc2ccccc12)c1ccccc1O [Compound 24, (E)-2-hydroxy-N′-((2-hydroxynaphthalen-1-yl)methylene)benzohydrazide]",effect on ADDL-induced increase in Perseveration Errors,[4]; combined with the requisite concentration of Aβ1-42 ADDLs,eliminated the increase in Perseveration Errors
same,Approach Errors Mean,[4]; [5],1.00
same,Perseveration Errors Mean,[4]; [5],0.92
same,error rates versus baseline,[4],did not increase error rates
same,Approach Errors Mean,[4]; [6],0.96
same,Perseveration Errors Mean,[4]; [6],0.95
"Aβ1-42 ADDLs: ADDLs made from synthetic Aβ1-42; soluble, oligomeric, globular, non-fibrillar, neurotoxic Aβ1-42 peptides [reference compound]",error rates versus baseline,[4],significantly increased Perseveration Error rate
same,Approach Errors Mean,[4]; [6],1.02
same,Perseveration Errors Mean,[4]; [6],1.33
